The values below come from patent US20150315188A1, “COMPOUNDS AND METHODS FOR TREATMENT OF HYPERTENSION” (MEDIVATION TECHNOLOGIES, INC., priority 2012, published 2015).

Test [1] concerns the target T1, Human adrenergic α2B receptor (Homo sapiens, UniProt P18089).
T1 sequence (P18089 1-450): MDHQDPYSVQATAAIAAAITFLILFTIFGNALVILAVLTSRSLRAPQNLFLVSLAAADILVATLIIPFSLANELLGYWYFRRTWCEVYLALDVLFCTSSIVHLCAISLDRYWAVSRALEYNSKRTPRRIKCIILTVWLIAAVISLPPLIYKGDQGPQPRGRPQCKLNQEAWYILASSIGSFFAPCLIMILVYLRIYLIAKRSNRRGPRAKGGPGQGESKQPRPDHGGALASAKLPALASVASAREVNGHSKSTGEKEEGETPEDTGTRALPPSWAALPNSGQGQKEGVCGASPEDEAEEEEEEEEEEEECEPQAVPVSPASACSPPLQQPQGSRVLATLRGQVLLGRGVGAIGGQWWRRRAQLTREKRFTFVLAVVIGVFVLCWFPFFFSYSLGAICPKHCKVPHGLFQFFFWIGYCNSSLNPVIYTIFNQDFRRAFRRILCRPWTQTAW
Put plainly: β-Arrestin GPCR functional assay, adrenergic α2B (Protocol B). It is filed as cell-based. The note with it: β-arrestin, antagonist vs nor-epinephrine EC80; read-out: IC50 Adrenergic α2B. The method, then:
To evaluate the activity of compounds in β-Arrestin GPCR functional assays, recombinant CHO cell line (DiscoveRX), over expressed with human adrenergic α2B receptor were used. The experiment was done with kit of DiscoveRX as per recommended protocol of the supplier. Cells were harvested from culture flask using cell dissociation solution (CDS) and plated at a density of 12,000 cells/well in CP reagent (supplied with the kit) in a half area 96-well white polystyrene plate. After 24 h incubation at 37° C., compounds at various concentrations in 1% (final) DMSO were charged to the cells for 30 min at 37° C. Active nor-epinephrine (-NE) at its EC80 concentrations (50 nM) were then added to the cells and incubated for another 90 min at 37° C. Detection mix was prepared by mixing of Path Hunter cell assay buffer, Emerald II solution and Galactone star solution in a ratio of 19:5:1 and incubated with the cells for 60 min at RT in the dark. The reading was taken in Envision at luminescence mode. Biochemical assay results are presented as the percent Inhibition in Table B2a, or IC50 values in Table B2b.

Test [2] concerns the target T2, Human adrenergic α1B receptor (Homo sapiens, UniProt P35368).
T2 sequence (P35368 1-520): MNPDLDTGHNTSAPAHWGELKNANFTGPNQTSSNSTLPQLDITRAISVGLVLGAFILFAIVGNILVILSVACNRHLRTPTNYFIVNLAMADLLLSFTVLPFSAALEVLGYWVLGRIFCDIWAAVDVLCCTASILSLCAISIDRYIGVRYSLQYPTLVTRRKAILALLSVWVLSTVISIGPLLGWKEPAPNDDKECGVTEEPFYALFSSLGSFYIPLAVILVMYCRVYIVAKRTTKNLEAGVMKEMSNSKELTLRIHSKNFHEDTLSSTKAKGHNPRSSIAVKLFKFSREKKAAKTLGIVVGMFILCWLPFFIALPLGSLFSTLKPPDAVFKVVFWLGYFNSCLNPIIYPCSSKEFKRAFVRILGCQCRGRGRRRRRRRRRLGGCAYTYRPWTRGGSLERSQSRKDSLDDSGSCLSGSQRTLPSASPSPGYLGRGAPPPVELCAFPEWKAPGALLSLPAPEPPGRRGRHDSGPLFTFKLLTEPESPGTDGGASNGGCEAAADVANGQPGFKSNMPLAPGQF
The test can be described thus: Radioligand binding, adrenergic α1B (Protocol Group B). The note with it: Protocol Group B; for inhibition at 0.1 µM: 0.1 μM compound, read-out: Percentage inhibition of ligand binding, Adrenergic α1B (0.1 μM); for inhibition at 0.3 µM: 0.3 μM compound, read-out: Percentage inhibition of ligand binding, Adrenergic α1B (0.3 μM). Further details: purchased Milipore (Millipore). The essentials: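 Values are percent inhibition of specific [3H]prazosin (0.3 nM) binding or estimated Ki, from filtration counting. Human α1B recombinant membranes, Tris-HCl pH 7.4 buffer with MgCl2 and EDTA, 60 min at 25 °C, 1% DMSO vehicle; 10 μM prazosin defined nonspecific binding.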

Test [3] has as its target T3, Human adrenergic α2A receptor (Homo sapiens, UniProt P08913).
T3 sequence (P08913 1-465): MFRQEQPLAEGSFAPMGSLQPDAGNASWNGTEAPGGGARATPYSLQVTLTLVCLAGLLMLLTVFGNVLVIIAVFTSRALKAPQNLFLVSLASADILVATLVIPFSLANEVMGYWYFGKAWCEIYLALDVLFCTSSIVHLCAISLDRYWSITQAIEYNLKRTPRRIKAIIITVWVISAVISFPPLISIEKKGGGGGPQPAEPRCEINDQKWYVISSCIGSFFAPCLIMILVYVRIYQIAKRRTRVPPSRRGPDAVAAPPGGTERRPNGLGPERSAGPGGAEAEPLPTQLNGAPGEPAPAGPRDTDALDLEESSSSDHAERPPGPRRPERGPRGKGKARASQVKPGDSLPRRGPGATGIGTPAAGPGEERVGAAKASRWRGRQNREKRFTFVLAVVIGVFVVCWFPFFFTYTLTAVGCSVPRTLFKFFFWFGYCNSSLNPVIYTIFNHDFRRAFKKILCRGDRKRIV
The test can be described thus: Radioligand binding, adrenergic α2A (Protocol Group B). Further details: purchased Milipore (Millipore). The note with it: Protocol Group B; for inhibition at 0.1 µM: 0.1 μM compound, read-out: Percentage inhibition of ligand binding, Adrenergic α2A (0.1 μM); for inhibition at 0.3 µM: 0.3 μM compound, read-out: Percentage inhibition of ligand binding, Adrenergic α2A (0.3 μM). The essentials: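 Compounds (1% DMSO vehicle, various concentrations) competed against 2 nM [^3H]MK-912 on recombinant receptor membranes for 60 min at 25° C, Tris-HCl pH 7.4 buffer with Mg2+, Ca2+, BSA. Bound radioligand filtered and counted; 10 μM rauwolscine set nonspecific binding. Values: percent inhibition of specific binding or estimated Ki.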

For test [4], the target named is T1, Human adrenergic α2B receptor. The test can be described thus: Radioligand binding, adrenergic α2B (Protocol Group B). Further details: purchased Milipore (Millipore). To be noted: Protocol Group B; for inhibition at 0.01 µM: 10 nM compound, read-out: Percentage inhibition of ligand binding, Adrenergic α2B (10 nM); for inhibition at 0.03 µM: 30 nM compound, read-out: Percentage inhibition of ligand binding, Adrenergic α2B (30 nM); for Ki: estimated Ki, read-out: Ki α2B; for inhibition at 0.1 µM: 0.1 μM compound, read-out: Percentage inhibition of ligand binding, Adrenergic α2B (0.1 μM). In short, it runs like this: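 Compounds at various concentrations in 1% DMSO were tested on recombinant membranes in Tris-HCl pH 7.4 buffer containing MgCl2, CaCl2 and 0.2% BSA.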

The structures appear in SMILES notation.

A word on the IC50: it is the concentration at which inhibition is half-maximal. By inhibition is commonly meant the change of the read-out against control, counted positive when it falls. One may read the Ki as a dissociation constant, usually derived from enzyme kinetics or from competition with a known ligand.

Take `Cc1ccc2c(c1)c1c(n2CC(C)(O)c2cnc3ccccc3c2)CCN(C)C1` (single isomer, unassigned) [32a]: the IC50 in test [1] turned out to be 396 nM. In addition, in test [2], the inhibition at 0.1 µM is -1% and the inhibition at 0.3 µM was found to be 26%. In addition, in test [3], the inhibition at 0.1 µM came out at 10% and the inhibition at 0.3 µM was 37%. For the same molecule, in test [4], the inhibition at 0.01 µM was 28%, the inhibition at 0.03 µM amounted to 54% and the Ki is 7.9 nM.
On to `Cc1ccc2c(c1)c1c(n2CC(O)c2ccncc2)CNC2CCCC12` (single isomer, unassigned) [34c], for which, in test [1], the 50% inhibitory concentration (IC50) was 251 nM. In addition, in test [2], the inhibition at 0.1 µM turned out to be 3% and the inhibition at 0.3 µM amounted to 28%. In addition, in test [2] (estimated Ki), the Ki is 379 nM. Besides, in test [3], the inhibition at 0.1 µM was found to be 4% and the inhibition at 0.3 µM was found to be 11%. The Ki in test [3] (estimated Ki) was 5.16 µM. In addition, in test [4], the inhibition at 0.01 µM was 52%, the inhibition at 0.03 µM turned out to be 80%, the inhibition at 0.1 µM stood at 90% and the Ki is 4.6 nM.
For `Cc1ccc2c(c1)c1c(n2CC(C)(O)c2cnccc2F)CCN(C)C1` (centres unmarked) [compound 40, 1-(2,8-dimethyl-3,4-dihydro-1H-pyrido[4,3-b]indol-5(2H)-yl)-2-(4-fluoropyridin-3-yl)propan-2-ol], in test [2], the inhibition at 0.1 µM was -6% and the inhibition at 0.3 µM came to 3%. Besides, in test [3], the inhibition at 0.1 µM stood at 5% and the inhibition at 0.3 µM is 19%. Further, in test [4], the inhibition at 0.01 µM turned out to be 19%, the inhibition at 0.03 µM was 44% and the inhibition at 0.1 µM was determined as 74%.
Consider `Cc1ccc2c(c1)c1c(n2CC(C)(O)c2ccc(N)nc2)CCN(C)C1` (centres unmarked) [compound 47, 2-(6-aminopyridin-3-yl)-1-(2,8-dimethyl-3,4-dihydro-1H-pyrido[4,3-b]indol-5(2H)-yl)propan-2-ol], for which, in test [2], the inhibition at 0.1 µM came out at 3% and the inhibition at 0.3 µM came to 32%. Further, in test [3], the inhibition at 0.1 µM is 33% and the inhibition at 0.3 µM worked out at 50%. For the same molecule, in test [4], the inhibition at 0.01 µM turned out to be 50%, the inhibition at 0.03 µM is 65% and the inhibition at 0.1 µM was 83%.
Consider `Cc1ccc2c(c1)c1c(n2CC(OC(C)C)c2ccncc2)CCN(C)C1` (centres unmarked) [compound 49, 5-(2-isopropoxy-2-(pyridin-4-yl)ethyl)-2,8-dimethyl-2,3,4,5-tetrahydro-1H-pyrido[4,3-b]indole], for which, in test [2], the inhibition at 0.1 µM was 9% and the inhibition at 0.3 µM was 40%. For the same molecule, in test [3], the inhibition at 0.1 µM stood at 28% and the inhibition at 0.3 µM was 53%. For the same molecule, in test [4], the inhibition at 0.01 µM amounted to 50%, the inhibition at 0.03 µM is 74% and the inhibition at 0.1 µM turned out to be 91%.
Turning to `Cc1ccc2c(c1)c1c(n2CC(O)c2ccc(C(=O)N(C)C)nc2)CCN(C)C1` (centres unmarked) [compound 54, 5-(2-(2,8-dimethyl-3,4-dihydro-1H-pyrido[4,3-b]indol-5(2H)-yl)-1-hydroxyethyl)-N,N-dimethylpicolinamide], in test [2], the inhibition at 0.1 µM is -5% and the inhibition at 0.3 µM is 8%. In test [3], the inhibition at 0.1 µM is -8% and the inhibition at 0.3 µM is -3%. In addition, in test [4], the inhibition at 0.01 µM stood at 15%, the inhibition at 0.03 µM stood at 43% and the inhibition at 0.1 µM was 66%.
Consider `Cc1ccc2c(c1)c1c(n2CC(O)c2ccc(C(=O)NC3CC3)nc2)CCN(C)C1` (centres unmarked) [compound 55, N-cyclopropyl-5-(2-(2,8-dimethyl-3,4-dihydro-1H-pyrido[4,3-b]indol-5(2H)-yl)-1-hydroxyethyl)picolinamide], for which, in test [2], the inhibition at 0.1 µM stood at 19% and the inhibition at 0.3 µM turned out to be 44%. Also, in test [3], the inhibition at 0.1 µM is -4% and the inhibition at 0.3 µM is 3%. In test [4], the inhibition at 0.01 µM came to 6%, the inhibition at 0.03 µM was 24% and the inhibition at 0.1 µM came out at 50%.
Take `Cc1ccc2c(c1)c1c(n2CC(C)(O)c2ccc(OCC3CC3)nc2)CCN(C)C1` (centres unmarked) [compound 56, 2-(6-(cyclopropylmethoxy)pyridin-3-yl)-1-(2,8-dimethyl-3,4-dihydro-1H-pyrido[4,3-b]indol-5(2H)-yl)propan-2-ol]: in test [2], the inhibition at 0.1 µM was 12% and the inhibition at 0.3 µM came out at 38%. Further, in test [3], the inhibition at 0.1 µM was determined as 1% and the inhibition at 0.3 µM amounted to 9%. For the same molecule, in test [4], the inhibition at 0.01 µM came to 17%, the inhibition at 0.03 µM was 48% and the inhibition at 0.1 µM came out at 74%.
Consider `Cc1ccc2c(c1)c1c(n2CC(C)(O)c2cccnc2)CCN(CC(F)F)C1` (centres unmarked) [compound 58, 1-(2-(2,2-difluoroethyl)-8-methyl-3,4-dihydro-1H-pyrido[4,3-b]indol-5(2H)-yl)-2-(pyridin-3-yl)propan-2-ol], for which, in test [2], the inhibition at 0.1 µM was -6% and the inhibition at 0.3 µM is -4%. Also, in test [3], the inhibition at 0.1 µM is -6% and the inhibition at 0.3 µM was -1%. Also, in test [4], the inhibition at 0.01 µM was -10%, the inhibition at 0.03 µM was -4% and the inhibition at 0.1 µM is -2%.
For `Cc1ccc2c(c1)c1c(n2CC(O)c2ccc(C(=O)N3CCCC3)nc2)CCN(C)C1` (centres unmarked) [compound 96, [5-[2-(2,8-dimethyl-3,4-dihydro-1H-pyrido[4,3-b]indol-5-yl)-1-hydroxy-ethyl]-2-pyridyl]-pyrrolidin-1-yl-methanone], in test [2], the inhibition at 0.1 µM was -1% and the inhibition at 0.3 µM turned out to be 9%. Also, in test [3], the inhibition at 0.1 µM was -7% and the inhibition at 0.3 µM is -9%. In addition, in test [4], the inhibition at 0.01 µM is 1% and the inhibition at 0.03 µM stood at 21%.
